Experiments:
[1] = test system: iNOS; details: cited from earlier work
[2] = test system: LPS-induced PGE2 production; details: cited from earlier work
[3] = test system: LPS-induced NO production; details: cited from earlier work
[4] = test system: LPS-induced nitrite (NO) generation on murine macrophage RAW264.7 cells; experiment: Nitrite assay: LPS-induced nitrite (NO) generation, Griess reaction; type: cell-based; details: either singly or in combination
From the text: The term “synergy” refers to the phenomenon in which the combination of two or more discrete agents acting together can cause a greater response than simply the sum of the individual effects of each agent if they were used separately. It is not uncommon to find the presence of two or more chemical constituents or herbs on an organism to be greater than the effect of each chemical constituent or herb individually, or the sum of the individual effects. […]
The nitrite concentration in the medium was measured as an indicator of NO production, a common phenomenon of the inflammation process, according to the Griess reaction. […] One hundred microliters of supernatant was mixed with the same volume of Griess reagent (1% sulfanilamide in 5% phosphoric acid and 0.1% naphthylethylenediamine dihydrocholide in water); absorbance of the mixture at 550 nm was determined with an ELISA plate reader (Dynatech MR-7000; Dynatech Laboratories Inc.).
Various combinations of herbal extracts were investigated for anti-inflammatory effect using nitrite assay. For the study, RAW 264.7 cells were treated with LPS (10 μg/mL) to induce nitrite production, various concentrations and combinations thereof were added, and the nitrite concentration in the medium was measured as an indicator of the inhibition of NO production, a common phenomenon of the inflammation process.

[5] = test system: RAW 264.7 cells activated with bacterial lipopolysaccharide; details: LPS 50 ng ml^−1; cited from earlier work

Molecule	iNOS enzyme activity [1]	COX-2 gene expression / activation [2]	LPS-induced PGE2 production [2]	LPS-induced NO production [3]	iNOS gene expression / activation [3]	anti-inflammatory property (inhibition of NO production) [4]	NO generation in activated macrophages (nitrite released into the culture medium) [5]	amount of cytosolic iNOS protein and steady state mRNA levels [5]
COc1c(O)cc(O)c2c(=O)cc(-c3ccccc3)oc12 [wogonin]	did not inhibit	inhibited	inhibited	significantly inhibited	significantly inhibited	–	–	–
O=C1O[C@H]([C@@H](O)CO)C(O)=C1O [Vitamin C, L-ascorbate]	–	–	–	–	–	did not show any noticeable anti-inflammatory property	–	–
COc1c(O)cc2oc(-c3ccccc3)cc(=O)c2c1O [Oroxylin A]	–	blocking	potent inhibitor	potent inhibitor	blocking	–	–	–
O=C(O)[C@H]1O[C@@H](Oc2cc3oc(-c4ccccc4)cc(=O)c3c(O)c2O)[C@H](O)[C@@H](O)[C@@H]1O [Baicalin]	did not inhibit	not	not	significantly inhibited	significantly inhibited	–	–	–
O=c1cc(-c2ccccc2)oc2cc(O)c(O)c(O)c12 [baicalein]	did not inhibit	not	not	significantly inhibited	significantly inhibited	–	–	–
Tocopherol [vitamin E]	–	–	–	–	–	did not show any noticeable anti-inflammatory property	–	–
Oc1ccc(C=Cc2cc(O)cc(O)c2)cc1 [Resveratrol]	–	–	–	–	–	–	strongly to inhibit	strongly reduced

Source: US20090304827A1, “Combinations of Ingredients Having Synergistic Anti-Inflammatory Effects” (priority 2008, published 2009)
